# Structures can show the parent of a compound that is named as a salt.
# Tested on: not given
# Assay: not given
# Settings: not given
row,Compound,melting point
1,"O=C(c1ccccc1)N1CCN([C@@H]2CN(Cc3ccccc3)C[C@H]2O)CC1 [Example 20, (4-((3,4-trans)-1-benzyl-4-hydroxypyrrolidine-3-yl)piperazin-1-yl)(phenyl)methanone]",130 to 134 °C

# Target: T1, Sigma-1 receptor (Cavia porcellus, UniProt Q60492)
# T1 construct: guinea pig brains were homogenized; from tissue; host or cells: guinea pig brain membranes
# Assay: Sigma-1 receptor binding assay, [3H](+)-pentazocine displacement in brain membranes
# Settings: 2.5 h, compound at 10^−7 M; [3H](+)-pentazocine 0.5 nM; guinea pig brain membranes; non-specific binding defined by 1 μM haloperidol; read-out: Percent Replacement Sigma-1 receptor [10^−7 M]
# Method: Some representative compounds of the invention were tested for their activity as sigma (sigma-1) inhibitors. The following protocol was followed:
# Brain membrane preparation and binding assays for the σ1-receptor were performed as described (DeHaven-Hudkins et al., 1992, Eur. J. Pharmacol. 227, 371-378.) with some modifications. In brief, guinea pig brains were homogenized in 10 vols. (w/v) of Tris-HCl 50 mM 0.32 M sucrose, pH 7.4, with a Kinematica Polytron PT 3000 at 15000 r.p.m. for 30 s. The homogenate was centrifuged at 1000g for 10 min at 4° C. and the supematants collected and centrifuged again at 48000 g for 15 min at 4° C. The pellet was resuspended in 10 volumes of Tris-HCl buffer (50 mM, pH 7.4), incubated at 37° C. for 30 min, and centrifuged at 48000 g for 20 min at 4° C. Following this, the pellet was resuspended in fresh Tris-HCl buffer (50 mM, pH 7.4) and stored on ice until use.
# Each assay tube contained 10 μL of [^3H](+)-pentazocine (final concentration of 0.5 nM), 900 μL of the tissue suspension to a final assay volume of 1 mL and a final tissue concentration of approximately 30 mg tissue net weight/mL. Non-specific binding was defined by addition of a final concentration of 1 μM haloperidol. All tubes were incubated at 37° C. for 150 min before termination of the reaction by rapid filtration over Schleicher & Schuell GF 3362 glass fibre filters [previously soaked in a solution of 0.5% polyethylenimine for at least 1 h]. Filters were then washed with four times with 4 mL of cold Tris-HCl buffer (50 mM, pH 7.4). Following addition of scintillation cocktail, the samples were allowed to equilibrate overnight. The amount of bound radioactivity was determined by liquid scintillation spectrometry using a Wallac Winspectral 1414 liquid scintillation counter. Protein concentrations were determined by the method of Lowry et al. (1951; J. Biol. Chem, 193, 265.).
# T1 sequence (Q60492 whole entry): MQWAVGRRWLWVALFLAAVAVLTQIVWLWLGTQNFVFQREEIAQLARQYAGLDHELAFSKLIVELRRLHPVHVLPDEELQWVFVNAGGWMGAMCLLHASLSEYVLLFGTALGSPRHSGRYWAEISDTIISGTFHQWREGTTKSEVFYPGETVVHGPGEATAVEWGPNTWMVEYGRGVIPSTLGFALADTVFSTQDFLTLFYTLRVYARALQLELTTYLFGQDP
row,Compound,inhibition at 0.1 µM
1,"Cc1ccc(S(=O)(=O)N2CCN([C@@H]3CN(Cc4ccccc4)C[C@H]3O)CC2)cc1 [Example 57, (3,4-trans)-1-benzyl-4-(4-tosylpiperazin-1-yl)pyrrolidin-3-ol dihydrochloride]",16.8%
2,"CCCCCCCCN[C@@H]1CN(Cc2ccccc2)C[C@H]1O [Example 31, (3R,4R)-1-benzyl-4-(octylamino)pyrrolidin-3-ol]",89.9%
3,"O[C@@H]1CN(Cc2ccccc2)C[C@H]1N1CCc2ccccc2C1 [Example 1, (3,4-trans)-1-benzyl-4-(3,4-dihydroisoquinolin-2(1H)-yl)pyrrolidine-3-ol]",84.9%
4,"CC(=O)O[C@@H]1CN(Cc2ccccc2)C[C@H]1N1CCN(S(=O)(=O)c2ccccc2-c2ccccc2)CC1 (relative stereo) [Example 27, trans 1-Benzyl-4-(4-(2-phenyl-phenylsulfonyl)piperazin-1-yl)pyrrolidin-3-yl acetate]",24.7%
5,"O[C@@H]1CN(Cc2ccccc2)C[C@H]1N1CCc2cccc3c2C1CC3 (stereo partly drawn) [Example 11, (3,4-trans)-1-benzyl-4-(2,3,8,8a-tetrahydrocyclopenta[ij]isoquinolin-1(7H)-yl)pyrrolidine-3-ol]",81.1%
6,"O=S(=O)(c1ccccc1Br)N1CCN([C@@H]2CN(Cc3ccccc3)C[C@H]2O)CC1 [Example 67, (3,4-trans)-1-benzyl-4-(4-(2-bromophenylsulfonyl)piperazin-1-yl)pyrrolidin-3-ol dihydrochloride]",86.7%
7,"O=S(=O)(c1ccccc1F)N1CCN([C@@H]2CN(Cc3ccccc3)C[C@H]2O)CC1 [Example 76, (3,4-trans)-1-benzyl-4-(4-(2-fluorophenylsulfonyl)piperazin-1-yl)pyrrolidin-3-ol dihydrochloride]",85%
8,"COc1ccc(CN[C@@H]2CN(Cc3ccccc3)C[C@H]2O)cc1 [Example 32, (3,4-trans)-1-benzyl-4-(4-methoxybenzylamino)pyrrolidin-3-ol]",59.1%
9,"CC(=O)O[C@@H]1CN(Cc2ccccc2)C[C@H]1N1CCN(S(=O)(=O)c2cccc3ccccc23)CC1 [Example 60, (3,4-trans)-1-benzyl-4-(4-(naphthalen-1-ylsulfonyl)piperazin-1-yl)pyrrolidin-3-yl acetate dihydrochloride]",40.8%
10,"O=S(=O)(c1cccc2ccccc12)N1CCN([C@@H]2CN(Cc3ccccc3)C[C@H]2O)CC1 [Example 61, (3,4-trans)-1-benzyl-4-(4-(naphthalen-1-ylsulfonyl)piperazin-1-yl)pyrrolidin-3-ol dihydrochloride]",30.1%
11,"CC(=O)O[C@@H]1CN(Cc2ccccc2)C[C@H]1N1CCN(S(=O)(=O)c2ccccc2F)CC1 [Example 75, (3,4-trans)-1-benzyl-4-(4-(2-fluorophenylsulfonyl)piperazin-1-yl)pyrrolidin-3-yl acetate dihydrochloride]",95.5%
12,"CC(=O)O[C@@H]1CN(Cc2ccccc2)C[C@H]1N1CCN(S(=O)(=O)c2ccc(C)cc2)CC1 [Example 56, (3,4-trans)-1-benzyl-4-(4-tosylpiperazin-1-yl)pyrrolidin-3-yl acetate dihydrochloride]",38%
13,CC(=O)O[C@@H]1CN(Cc2ccccc2)C[C@H]1N1CCN(C(=O)OC(C)(C)C)CC1 [Example 24],73%
14,"O[C@H]1CN(Cc2ccccc2)C[C@@H]1N1CCN(c2ccccc2Cl)CC1 [Example 86, (3S,4S)-1-benzyl-4-(4-(2-chlorophenyl)piperazin-1-yl)pyrrolidin-3-ol]",86.2%
15,"COc1ccc(N[C@@H]2CN(Cc3ccccc3)C[C@H]2O)cc1 [Example 37, (3R,4R)-1-benzyl-4-(4-methoxyphenylamino)pyrrolidin-3-ol]",65.4%
16,"C[C@@H](c1ccccc1)N1C[C@@H](O)[C@H](N2CCc3ccccc3C2)C1 [Example 16, (3,4-trans)-4-(3,4-dihydroisoquinolin-2(1H)-yl)-1((S)-1-phenylethyl)pyrrolidine-3-ol]",49.9%

row,Compound,inhibition at 0.1 µM
1,"O[C@@H]1CN(Cc2ccccc2)C[C@H]1NCCCN1CCc2ccccc2C1 [Example 9, (3,4-trans)-1-benzyl-4-(3-(3,4-dihydroisoquinolin-2(1H)-yl)propylamino)pyrrolidine-3-ol]",38.6%
2,O[C@@H]1CN(Cc2ccccc2)C[C@H]1N1CCN(c2ccccc2Cl)CC1 [Example 85],107%
3,"Cc1ccc(F)cc1S(=O)(=O)N1CCN([C@@H]2CN(Cc3ccccc3)C[C@H]2O)CC1 [Example 70, (3,4-trans)-1-benzyl-4-(4-(5-fluoro-2-methylphenylsulfonyl)piperazin-1-yl)pyrrolidin-3-ol dihydrochioride]",81.4%
4,"O[C@@H]1CN(Cc2ccccc2)C[C@H]1N1CCC(CN2CCc3ccccc3C2)CC1 [Example 5, (3,4-trans)-1-benzyl-4-(4-((3,4-dihydrolsoquinolin-2(1H)-yl)methyl)piperidin-1-yl)pyrrolidine-3-ol]",63.5%
5,"COC(=O)c1ccc(N[C@@H]2CN(Cc3ccccc3)C[C@H]2O)cc1 [Example 38, Methyl 4-((3,4-trans)-1-benzyl-4-hydroxypyrrolidin-3-ylamino)benzoate]",55.9%
6,"COc1ccnc(N2CCN([C@@H]3CN(Cc4ccccc4)C[C@H]3O)CC2)n1 [Example 10, (3,4-trans)-1-benzyl-4-(4-(4-methoxypyrimidin-2-yl)piperazin-1-yl)pyrrolidine-3-ol]",77.8%
7,"O[C@@H]1CN(Cc2ccccc2)C[C@H]1Nc1ccccc1 [Example 29, (3,4-trans)-1-benzyl-4-(phenylamino)pyrrolidin-3-ol]",39.3%
8,"O=S(=O)(c1ccccc1)N1CCN([C@@H]2CN(Cc3ccccc3)C[C@H]2O)CC1 [Example 73, (3,4-trans)-1-benzyl-4-(4-(phenylsulfonyl)piperazin-1-yl)pyrrolidin-3-ol]",84%
9,"CC(C)(C)OC(=O)N1CCN([C@@H]2CN(Cc3ccccc3)C[C@H]2O)CC1 [Example 12, tert-butyl-4-((3,4-trans)-1-benzyl-4-hydroxypyrrolidine-3-yl)piperazine-1-carboxylate]",96.5%
10,"O[C@@H]1CN(Cc2ccccc2)C[C@H]1N1CCN(c2ccc(F)cc2)CC1 [Example 83, (3,4-trans)-1-benzyl-4-(4-(4-fluorophenyl)piperazin-1-yl)pyrrolidin-3-ol]",69.7%
11,"O=S(=O)(c1ccccc1F)N1CCN([C@H]2CN(Cc3ccccc3)C[C@@H]2O)CC1 [Example 77, (3S,4S)-1-benzyl-4-(4-(2-fluorophenylsulfonyl)piperazin-1-yl)pyrrolidin-3-ol dihydrochloride]",46.1%
12,"O[C@@H]1CN(Cc2ccccc2)C[C@H]1N1CCN(c2ccc(Cl)c(Cl)c2)CC1 [Example 88, (3,4-trans)-1-benzyl-4-(4-(3,4-dichlorophenyl)piperazin-1-yl)pyrrolidin-3-ol]",93.1%
13,"CC(=O)O[C@@H]1CN(Cc2ccccc2)C[C@H]1N1CCN(S(=O)(=O)c2ccccc2Cl)CC1 [Example 52, (3R,4R)-1-benzyl-4(4-(2-chlorophenylsulfonyl)piperazin-1-yl)pyrrolidin-3-yl acetate]",92.4%
14,"O[C@@H]1CN(Cc2ccccc2)C[C@H]1N1CCN(Cc2c(F)cccc2Cl)CC1 [Example 78, (3,4-trans)-1-benzyl-4-(4-(2-chloro-6-fluorobenzyl)piperazin-1-yl)pyrrolidine-3-ol]",81.9%
15,"O[C@@H]1CN(Cc2ccccc2)C[C@H]1N1CCN(Cc2ccc(Cl)c(Cl)c2)CC1 [Example 79, (3,4-trans)-1-benzyl-4-(4-(3,4-dichlorobenzyl)piperazin-1-yl)pyrrolidine-3-ol]",88.4%

# Same assay, conditions: compound at 10^−7 M; [3H](+)-pentazocine 0.5 nM; guinea pig brain membranes; non-specific binding defined by 1 μM haloperidol
row,Compound,Percent Replacement Sigma-1 receptor [10^−7 M]
1,"O[C@@H]1CN(Cc2ccccc2)C[C@H]1N1CCN(c2ccccc2Cl)CC1 [Example 84, (3,4-trans)-1-benzyl-4-(4-(2-chlorophenyl)piperazin-1-yl)pyrrolidin-3-ol]",94.6%
2,"O=S(=O)(c1ccccc1F)N1CCN([C@@H]2CN(Cc3ccccc3)C[C@H]2O)CC1 [Example 48, (3R,4R)-1-benzyl-4-(4-(2-fluorophenylsulfonyl)piperazin-1-yl)pyrrolidin-3-ol]",96.5%

# — patent US20100168093A1, “SUBSTITUTED 3-AMINO-4 -HYDROXY PYRROLIDINES COMPOUNDS, THEIR PREPARATION AND USE AS MEDICAMENTS” (priority 2006, published 2010)
